Measured values published in ChEMBL document CHEMBL4507297, “Data for DCP probe PF-04457845” (2021).

Columns and labels:
[1] = biological target: Gastrin/cholecystokinin type B receptor (Homo sapiens) (UniProt P32239); experiment: CCKB (h) (CCK2) CEREP ligand profiling; details: Compound concentration 10.0 uM
[2] = biological target: Histamine H3 receptor (Homo sapiens) (UniProt Q9Y5N1); experiment: H3 (h) CEREP ligand profiling; details: Compound concentration 10.0 uM
[3] = biological target: Adenosine receptor A1 (Homo sapiens) (UniProt P30542); experiment: A1 (h) CEREP ligand profiling; details: Compound concentration 10.0 uM
Sequence of Adenosine receptor A1 (Homo sapiens) (P30542 whole entry): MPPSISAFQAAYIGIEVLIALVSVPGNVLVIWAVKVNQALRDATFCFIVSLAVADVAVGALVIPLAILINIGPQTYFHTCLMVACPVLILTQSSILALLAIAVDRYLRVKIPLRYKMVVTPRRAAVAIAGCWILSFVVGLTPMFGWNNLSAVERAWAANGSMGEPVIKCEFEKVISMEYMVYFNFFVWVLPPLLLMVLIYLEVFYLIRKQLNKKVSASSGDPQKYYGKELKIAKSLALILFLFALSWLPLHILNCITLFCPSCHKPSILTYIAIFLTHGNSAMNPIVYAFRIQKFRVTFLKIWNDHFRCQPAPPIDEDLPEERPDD

[4] = biological target: T1, 5-hydroxytryptamine receptor 2C (Homo sapiens) (UniProt P28335); experiment: 5-HT2C (h) (agonist site) CEREP ligand profiling; details: Compound concentration 10.0 uM
T1 sequence (whole entry): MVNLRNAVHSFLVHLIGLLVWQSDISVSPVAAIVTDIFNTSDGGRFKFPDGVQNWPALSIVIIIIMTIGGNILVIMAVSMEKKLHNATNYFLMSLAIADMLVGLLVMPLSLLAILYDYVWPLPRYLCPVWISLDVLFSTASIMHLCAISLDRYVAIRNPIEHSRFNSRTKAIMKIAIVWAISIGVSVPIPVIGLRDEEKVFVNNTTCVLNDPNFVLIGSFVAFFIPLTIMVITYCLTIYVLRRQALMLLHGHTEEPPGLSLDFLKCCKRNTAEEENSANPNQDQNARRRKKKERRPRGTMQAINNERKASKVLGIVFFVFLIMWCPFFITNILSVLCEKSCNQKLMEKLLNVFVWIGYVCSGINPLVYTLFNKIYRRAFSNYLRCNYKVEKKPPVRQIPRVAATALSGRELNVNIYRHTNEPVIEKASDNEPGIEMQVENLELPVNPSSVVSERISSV

[5] = biological target: Alpha-1A adrenergic receptor (Homo sapiens) (UniProt P35348); details: Compound concentration 10.0 uM
Sequence of Alpha-1A adrenergic receptor (Homo sapiens) (P35348 whole entry): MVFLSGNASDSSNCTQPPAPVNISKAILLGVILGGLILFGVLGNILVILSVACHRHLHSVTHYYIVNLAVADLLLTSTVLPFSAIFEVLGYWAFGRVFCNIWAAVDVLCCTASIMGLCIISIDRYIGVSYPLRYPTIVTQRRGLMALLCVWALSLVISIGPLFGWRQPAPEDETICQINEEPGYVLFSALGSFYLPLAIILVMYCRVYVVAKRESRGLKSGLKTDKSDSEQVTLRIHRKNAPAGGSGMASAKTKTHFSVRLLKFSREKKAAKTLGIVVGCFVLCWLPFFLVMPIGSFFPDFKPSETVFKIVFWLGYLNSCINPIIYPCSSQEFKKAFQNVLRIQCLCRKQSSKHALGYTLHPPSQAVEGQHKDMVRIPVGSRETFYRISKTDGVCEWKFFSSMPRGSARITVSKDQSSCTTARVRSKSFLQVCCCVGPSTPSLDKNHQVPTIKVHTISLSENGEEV

[6] = biological target: T2, Alpha-2A adrenergic receptor (Homo sapiens) (UniProt P08913); experiment: alpha2A (h) CEREP ligand profiling; details: Compound concentration 10.0 uM
T2 sequence (whole entry): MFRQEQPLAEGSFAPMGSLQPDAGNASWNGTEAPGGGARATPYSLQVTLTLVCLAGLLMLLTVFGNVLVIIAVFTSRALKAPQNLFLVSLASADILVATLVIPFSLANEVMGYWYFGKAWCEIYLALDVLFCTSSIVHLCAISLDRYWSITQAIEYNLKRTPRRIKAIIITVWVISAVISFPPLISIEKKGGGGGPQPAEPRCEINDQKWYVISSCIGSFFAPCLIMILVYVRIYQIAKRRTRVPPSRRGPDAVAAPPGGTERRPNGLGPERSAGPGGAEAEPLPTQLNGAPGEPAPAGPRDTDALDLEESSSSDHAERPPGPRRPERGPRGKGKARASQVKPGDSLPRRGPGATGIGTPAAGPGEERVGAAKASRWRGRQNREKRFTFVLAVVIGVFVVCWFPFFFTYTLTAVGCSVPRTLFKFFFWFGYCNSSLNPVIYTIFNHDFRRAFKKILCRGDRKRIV

[7] = biological target: 5-hydroxytryptamine receptor 1B (Homo sapiens) (UniProt P28222); experiment: 5-HT1B CEREP ligand profiling; details: Compound concentration 10.0 uM
Sequence of 5-hydroxytryptamine receptor 1B (Homo sapiens) (P28222 whole entry): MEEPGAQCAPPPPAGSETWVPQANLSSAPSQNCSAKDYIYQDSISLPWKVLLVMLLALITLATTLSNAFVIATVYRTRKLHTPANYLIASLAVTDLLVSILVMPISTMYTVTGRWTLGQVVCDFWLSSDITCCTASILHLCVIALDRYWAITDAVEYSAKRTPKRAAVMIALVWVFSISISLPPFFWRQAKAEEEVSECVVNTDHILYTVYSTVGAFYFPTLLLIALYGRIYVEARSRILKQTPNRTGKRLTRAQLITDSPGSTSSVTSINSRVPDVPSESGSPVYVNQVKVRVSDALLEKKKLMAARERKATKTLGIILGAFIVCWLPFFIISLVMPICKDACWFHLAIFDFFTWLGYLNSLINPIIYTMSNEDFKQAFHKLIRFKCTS

[8] = biological target: 5-hydroxytryptamine receptor 2B (Homo sapiens, UniProt P41595); experiment: GPCRScan assay: inhibition of 5-HT2B; design: radioligand conc. used [nm] 1.0 – 2.0, parental cells stable HEK
Sequence of 5-hydroxytryptamine receptor 2B (P41595 whole entry): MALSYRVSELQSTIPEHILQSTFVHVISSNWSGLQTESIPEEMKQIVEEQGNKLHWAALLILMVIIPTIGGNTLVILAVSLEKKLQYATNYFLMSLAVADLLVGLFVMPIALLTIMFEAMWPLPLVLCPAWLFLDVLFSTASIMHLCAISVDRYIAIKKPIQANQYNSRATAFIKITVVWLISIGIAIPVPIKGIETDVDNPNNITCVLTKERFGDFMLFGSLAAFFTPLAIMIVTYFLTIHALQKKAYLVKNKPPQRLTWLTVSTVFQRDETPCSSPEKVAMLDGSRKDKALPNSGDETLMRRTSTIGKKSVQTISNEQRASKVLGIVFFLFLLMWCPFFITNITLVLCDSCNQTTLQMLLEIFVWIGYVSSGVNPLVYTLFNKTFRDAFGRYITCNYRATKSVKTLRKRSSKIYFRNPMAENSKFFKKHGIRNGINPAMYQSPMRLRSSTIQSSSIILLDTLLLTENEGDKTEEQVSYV

[9] = biological target: Alpha-1D adrenergic receptor (Homo sapiens) (UniProt P25100); details: Compound concentration 10.0 uM
Sequence of Alpha-1D adrenergic receptor (Homo sapiens) (P25100 whole entry): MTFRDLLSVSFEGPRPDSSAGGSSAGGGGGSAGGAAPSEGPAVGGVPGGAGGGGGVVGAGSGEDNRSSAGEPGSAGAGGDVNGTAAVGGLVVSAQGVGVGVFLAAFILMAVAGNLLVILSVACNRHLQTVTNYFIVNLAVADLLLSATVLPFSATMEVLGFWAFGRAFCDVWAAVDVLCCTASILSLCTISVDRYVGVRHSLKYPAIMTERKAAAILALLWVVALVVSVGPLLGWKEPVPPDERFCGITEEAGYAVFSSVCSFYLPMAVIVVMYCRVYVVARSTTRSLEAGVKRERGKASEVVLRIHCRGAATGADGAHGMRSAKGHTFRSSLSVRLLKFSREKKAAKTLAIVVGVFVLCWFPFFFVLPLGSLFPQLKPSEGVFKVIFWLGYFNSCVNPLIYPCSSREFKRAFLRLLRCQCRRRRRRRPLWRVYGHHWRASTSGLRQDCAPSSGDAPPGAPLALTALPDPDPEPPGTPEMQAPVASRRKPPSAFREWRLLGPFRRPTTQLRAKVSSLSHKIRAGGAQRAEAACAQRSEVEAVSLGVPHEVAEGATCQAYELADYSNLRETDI

Sequence of Histamine H3 receptor (Homo sapiens) (Q9Y5N1 whole entry): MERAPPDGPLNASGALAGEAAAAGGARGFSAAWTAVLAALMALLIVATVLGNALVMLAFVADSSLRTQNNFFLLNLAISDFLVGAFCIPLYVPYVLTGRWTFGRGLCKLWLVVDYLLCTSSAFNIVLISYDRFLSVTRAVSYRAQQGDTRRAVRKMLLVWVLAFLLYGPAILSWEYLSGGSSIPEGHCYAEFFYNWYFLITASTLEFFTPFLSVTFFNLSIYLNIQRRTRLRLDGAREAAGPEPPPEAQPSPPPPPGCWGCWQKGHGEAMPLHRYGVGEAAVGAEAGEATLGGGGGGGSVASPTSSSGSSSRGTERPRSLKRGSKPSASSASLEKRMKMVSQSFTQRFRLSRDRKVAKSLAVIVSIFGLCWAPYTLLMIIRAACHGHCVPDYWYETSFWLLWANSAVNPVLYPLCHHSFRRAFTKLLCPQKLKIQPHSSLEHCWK
Sequence of Gastrin/cholecystokinin type B receptor (Homo sapiens) (P32239 whole entry): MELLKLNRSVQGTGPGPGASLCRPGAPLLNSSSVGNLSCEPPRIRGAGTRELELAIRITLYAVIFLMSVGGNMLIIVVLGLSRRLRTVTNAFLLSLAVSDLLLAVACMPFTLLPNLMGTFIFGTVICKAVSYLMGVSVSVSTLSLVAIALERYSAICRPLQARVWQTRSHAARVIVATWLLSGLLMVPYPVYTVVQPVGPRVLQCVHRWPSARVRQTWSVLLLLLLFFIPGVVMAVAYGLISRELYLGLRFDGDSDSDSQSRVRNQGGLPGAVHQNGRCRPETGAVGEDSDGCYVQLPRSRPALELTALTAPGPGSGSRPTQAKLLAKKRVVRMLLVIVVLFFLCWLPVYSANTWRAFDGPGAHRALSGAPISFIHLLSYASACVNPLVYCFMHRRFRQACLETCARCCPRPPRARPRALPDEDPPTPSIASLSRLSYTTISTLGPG

O=C(Nc1cccnn1)N1CCC(=Cc2cccc(Oc3ccc(C(F)(F)F)cn3)c2)CC1
1340 nM: Ki [8]
inactive: inhibition [1] -6% | inhibition [2] 10% | inhibition [3] 3% | inhibition [4] -3% | inhibition [5] 10.3% | inhibition [6] -4% | inhibition [7] -3% | inhibition [9] 3.84%
